According to paper PMC8941859, “The FDA-Approved Drug Cobicistat Synergizes with Remdesivir To Inhibit SARS-CoV-2 Replication In Vitro and Decreases Viral Titers and Disease Progression in Syrian Hamsters” (mBio, 2022):
“And” between values parts separate entries of the source, which are not always exact repeats. Identical values can stand only once. Like-named read-outs stand apart in the source and are kept apart here.

Tests used:
3CLpro = 3CLpro (Severe acute respiratory syndrome coronavirus 2, UniProt P0DTD1); test: 3CLpro fluorescence resonance energy transfer (FRET) assay; format: biochemical, SARS-CoV-2; details: for FRET-determined EC50 (3CLpro): normalized to untreated control, nonlinear regression
Description: The activity of 3CLpro was measured by FRET assay (BPS Bioscience, San Diego, CA, USA) according to the manufacturer’s instructions and as previously described ([34]). […] Wells without drugs or without 3CLpro were used as positive control of 3CLpro activity and blank control, respectively. After a 30-min incubation, the 3CLpro substrate was added to each well and the plate was stored for 4 h in the dark. The fluorescence signal was acquired on an Infinite 200 PRO (Tecan, Männedorf, Switzerland) using an excitation wavelength of 360 nm and a detection wavelength of 460 nm. Relative 3CLpro was expressed as percentage of the positive control after subtraction of the blank.

SARS-CoV-2 [1] = test: microbe, parasite or virus in culture; format: cell-based
in vitro = format: cell-based; details: human; African green monkey
Description: Cell viability was evaluated by the MTT [3-(4,5-dimethylthiazol-2-yl)-2,5-diphenyl tetrazolium bromide] assay and by crystal violet staining as previously described ([76], [77]). Briefly, the MTT assay was conducted using the CellTiter 96 nonradioactive cell proliferation assay (MTT) (Promega; Madison, WI, USA). Cells were plated in a 96‐well plate at a concentration of 3 × 10^6 cells/mL in 100 μL of medium. The MTT solution (15 μL) was added to each well, and after 2 to 4 h, the reaction was stopped by the addition of 100 μL of 10% SDS. Absorbance values were acquired using an Infinite 200 PRO (Tecan, Männedorf, Switzerland) multimode plate reader at a 570-nm wavelength.
Data normality assumptions were tested by D’Agostino and Pearson normality test (for n > 3). Multiple-group comparisons were conducted by nonparametric Kruskal-Wallis test, followed by Dunn’s posttest, or by one-way or two-way analysis of variance (ANOVA) followed by Holm-Sidak or Dunnett posttests, respectively. Half-maximal inhibitory (IC50), effective (EC50), and cytotoxic (CC50) concentrations of the compounds were estimated by nonlinear regression after data normalization. […] Data analysis was conducted using GraphPad Prism v6 (GraphPad Software, San Diego, CA, USA). Synergy scores were calculated with the SynergyFinder web tool ([79]) using the Zero Interaction Potency (ZIP) model ([80]).

[2] = target: spike protein and human ACE2 (Severe acute respiratory syndrome coronavirus 2, UniProt P0DTC2); test: cell-based; design: species or system SARS-CoV-2; human; details: 1 h preincubation, luciferase after 24 h; read-out: IC50 of S-glycoprotein-mediated cell fusion
[3] = system: Vero E6 cells transfected with the SARS-CoV-2 S-protein; test: Syncytium formation assay; format: cell-based, African green monkey; details: 1, 5, 10 μM; 24 h posttransfection
SARS-CoV-2 [4] = test: Replication-competent virus in supernatant (plaque assay); format: cell-based; details: Vero E6 cells, MOI 0.05, 2.5-10 μM, 24 h postinfection
SARS-CoV-2 [5] = format: cell-based; details: 5 to 10 μM; MTT and crystal violet; Calu-3, T84, Vero E6
SARS-CoV-2 [6] = test: SARS-CoV-2-infected Syrian hamsters

SMILES | FRET-determined EC50 (3CLpro) | EC50 (3CLpro) [µM] | Alveolar alterations: Alveolar edema (SARS-CoV-2 [6]; Day 3, single animal) | Alveolar alterations: Epithelial necrosis (SARS-CoV-2 [6]; Day 3, single animal) | Alveolar alterations: Type II hyperplasia (SARS-CoV-2 [6]; Day 3, single animal) | Pneumonia: Consolidated lung area (%) (SARS-CoV-2 [6]; Day 3, single animal) | Pneumonia: Inflammation score (SARS-CoV-2 [6]; Day 3, single animal) | Pneumonia: Lung area affected (%) (SARS-CoV-2 [6]; Day 3, single animal) | Vascular alterations: Endothelialitis (SARS-CoV-2 [6]; Day 3, single animal) | Vascular alterations: Perivascular edema (SARS-CoV-2 [6]; Day 3, single animal) | Vascular alterations: Perivascular lymphocytes (SARS-CoV-2 [6]; Day 3, single animal) | Alveolar alterations: Alveolar edema (SARS-CoV-2 [6]; Day 5, single animal) | Alveolar alterations: Epithelial necrosis (SARS-CoV-2 [6]; Day 5, single animal) | Alveolar alterations: Type II hyperplasia (SARS-CoV-2 [6]; Day 5, single animal) | Pneumonia: Consolidated lung area (%) (SARS-CoV-2 [6]; Day 5, single animal) | Pneumonia: Inflammation score (SARS-CoV-2 [6]; Day 5, single animal) | Pneumonia: Lung area affected (%) (SARS-CoV-2 [6]; Day 5, single animal) | Vascular alterations: Endothelialitis (SARS-CoV-2 [6]; Day 5, single animal) | Vascular alterations: Perivascular edema (SARS-CoV-2 [6]; Day 5, single animal) | Vascular alterations: Perivascular lymphocytes (SARS-CoV-2 [6]; Day 5, single animal) | also measured
CC(C)CN(C[C@@H](O)[C@H](Cc1ccccc1)NC(=O)O[C@H]1CO[C@H]2OCC[C@H]21)S(=O)(=O)c1ccc(N)cc1 [Darunavir] | Could not be calculated |  |  |  |  |  |  |  |  |  |  |  |  |  |  |  |  |  |  |  | 
CCC[C@@]1(CCc2ccccc2)CC(O)=C([C@H](CC)c2cccc(NS(=O)(=O)c3ccc(C(F)(F)F)cn3)c2)C(=O)O1 [Tipranavir] |  | 47 |  |  |  |  |  |  |  |  |  |  |  |  |  |  |  |  |  |  | 
CC(C)c1nc(CN(C)C(=O)N[C@@H](CCN2CCOCC2)C(=O)N[C@H](CC[C@H](Cc2ccccc2)NC(=O)OCc2cncs2)Cc2ccccc2)cs1 [Cobicistat] | Could not be calculated |  | 2 and 0 | 1 and 0 and (1) | 1–2 and 0 | 20% and 0% and <5% | 2–3 and (1) and 1 | 30% and <5% and 5–10% | 2–3 and (1) and 1–2 | 1–2 and 0 | 1–2 and 0 | 3 and 2 and 2–3 | 2 and 1 | 2–3 and 3 and 1–2 | 50% and 30% and 35% | 3 and 2–3 | 80% and 70% and 50% | 2–3 and 3 | 2–3 and 2 | 2 and 1 | Effect on catalytic activity of 3CLpro (3CLpro; FRET assay, Fig. S3A): inactive; Effect on intracellular and supernatant viral RNA (SARS-CoV-2 [1]; Calu-3 cells, time course, low-micromolar concentrations, qPCR N1 and N2 primers): dose-dependent inhibitory effect; IC50 (SARS-CoV-2 [1]; Severe acute respiratory syndrome coronavirus 2, Calu-3, Vero E6 and T84 cells, MOI 0.05 and 0.5, treated 2 h postinfection, 48 h, read-out: IC50 (viral RNA release in supernatant), range): 580 to 8760 nM; CC50 at 48 h (in vitro): 38.7 to 53 µM; IC50 [2]: 3.83 µM and 3.8 µM; Syncytium formation [3]: decreased syncytium formation; Levels of replication-competent virus in supernatant (SARS-CoV-2 [4]): able to decrease the levels of replication-competent virus; Viability of infected cells (SARS-CoV-2 [5]): partially rescue viability of infected cells; Tolerability of dosing regimen in vivo (SARS-CoV-2 [6]; 50 mg/kg): well tolerated; Infectious progeny in the lung (PFU, plaque assay) (SARS-CoV-2 [6]; cobicistat 50 mg/kg oral daily, remdesivir 15 mg/kg i.p. daily, days 3 and 5 p.i.): significant decrease
CCC(CC)COC(=O)[C@H](C)N[P@](=O)(OC[C@H]1O[C@@](C#N)(c2ccc3c(N)ncnn23)[C@H](O)[C@@H]1O)Oc1ccccc1 [Remdesivir, remdesivir] |  |  | 0 | (1) and 0 | 0 | 0% | (1) | 5% and <5% | 0 | (1) and 0 | 0 and (1) | 1 and 1–2 and 2 | 2 | 1 and 1–2 | 25% and 35% and 30% | 2–3 | 40% and 70% | 2–3 and 2 | (1) and 1 and 2 | 2 and 1–2 | IC50 (SARS-CoV-2 [1]; Severe acute respiratory syndrome coronavirus 2, Vero C1008, Vero E6 cells, MOI 0.5, 48 h, read-out: IC50 (viral RNA expression in supernatant)): 740 nM; IC50 (SARS-CoV-2 [1]; Severe acute respiratory syndrome coronavirus 2, T84 cells, MOI 0.5, 48 h, read-out: IC50 (viral RNA expression in supernatant)): 350 nM
Cc1c(O)cccc1C(=O)N[C@@H](CSc1ccccc1)[C@H](O)CN1C[C@H]2CCCC[C@H]2C[C@H]1C(=O)NC(C)(C)C [Nelfinavir] | Could not be calculated |  |  |  |  |  |  |  |  |  |  |  |  |  |  |  |  |  |  |  | 
Cc1cccc(C)c1OCC(=O)N[C@@H](Cc1ccccc1)[C@@H](O)C[C@H](Cc1ccccc1)NC(=O)[C@H](C(C)C)N1CCCNC1=O [Lopinavir] |  | 219 |  |  |  |  |  |  |  |  |  |  |  |  |  |  |  |  |  |  | 
